According to patent US12252524B2, “GIP/GLP1 co-agonist compounds” (Eli Lilly and Company, priority 2018, dated 2025):
Where two headings read alike, the source gives them in different places. Numbered stars: 1 amine (or outer) side, 2 acyl side, 3 side chain; on linkers, the order of the positions; unused ones are H or OH. Square brackets hold non-standard residues; d marks the D form. Side chains are listed from the residue outwards. Peptide text beside a SMILES is read from it. * marks the point of attachment. C20 diacid = O=C(O)CCCCCCCCCCCCCCCCCCC(=O)*; C18 diacid = O=C(O)CCCCCCCCCCCCCCCCC(=O)*; αMePhe(2-F) = C[C@](N)(Cc1ccccc1F)C(=O)O; γGlu = O=C(O)[C@H](CCC(=O)[*:2])N[*:1]; αMeF = C[C@](N)(Cc1ccccc1)C(=O)O; αMeL = CC(C)C[C@](C)(N)C(=O)O; Orn = NCCC[C@H](N)C(=O)O; AEEA = NCCOCCOCC(=O)O; Aib = CC(C)(N)C(=O)O

How the values were obtained:
human Gcg receptor = target: T1, human Gcg receptor (Homo sapiens, UniProt P47871); experiment: [125I]-Glucagon binding (SPA), human Gcg receptor
T1 construct: expressed in transfected cells; crude membranes
T1 sequence (P47871 26-477): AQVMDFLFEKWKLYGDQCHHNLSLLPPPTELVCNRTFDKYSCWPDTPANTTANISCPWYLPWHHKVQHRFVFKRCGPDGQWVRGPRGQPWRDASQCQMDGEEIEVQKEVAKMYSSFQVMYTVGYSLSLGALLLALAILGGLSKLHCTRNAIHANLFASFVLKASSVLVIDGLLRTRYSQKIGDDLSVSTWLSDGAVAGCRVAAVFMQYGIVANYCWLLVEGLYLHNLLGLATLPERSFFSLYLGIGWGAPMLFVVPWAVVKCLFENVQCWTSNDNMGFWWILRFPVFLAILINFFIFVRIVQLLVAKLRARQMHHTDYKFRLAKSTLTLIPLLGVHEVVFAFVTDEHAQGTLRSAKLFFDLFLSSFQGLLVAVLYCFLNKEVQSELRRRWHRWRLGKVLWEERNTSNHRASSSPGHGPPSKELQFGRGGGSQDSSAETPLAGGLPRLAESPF
How it was run: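 Cell pellets were lysed in hypotonic Tris buffer, pH 7.5, homogenized, and spun at low then high speed to give crude membranes. Ki was derived from the fitted IC50.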

[1] = target: human GLP-1 receptor (GLP-1R) (Homo sapiens, UniProt P43220); experiment: cAMP pharmacological functional assay in presence of casein, hGLP-1R; assay type: cell-based
human GLP-1 receptor (GLP-1R), sequence (P43220 24-463): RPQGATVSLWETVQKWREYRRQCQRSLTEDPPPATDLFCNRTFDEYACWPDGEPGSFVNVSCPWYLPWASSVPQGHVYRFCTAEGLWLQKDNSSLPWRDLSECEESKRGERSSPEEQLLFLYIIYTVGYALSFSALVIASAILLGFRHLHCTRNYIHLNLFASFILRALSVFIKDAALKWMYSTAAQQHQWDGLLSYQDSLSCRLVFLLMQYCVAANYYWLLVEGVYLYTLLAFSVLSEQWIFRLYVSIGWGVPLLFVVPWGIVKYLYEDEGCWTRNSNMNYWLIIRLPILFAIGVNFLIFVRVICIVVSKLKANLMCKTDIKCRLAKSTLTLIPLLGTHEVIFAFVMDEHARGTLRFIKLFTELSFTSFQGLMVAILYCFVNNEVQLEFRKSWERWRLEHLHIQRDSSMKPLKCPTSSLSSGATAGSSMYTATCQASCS

[2] = target: T2, gastric inhibitory peptide receptor (GIPR) (Homo sapiens, UniProt P48546); experiment: cAMP pharmacological functional assay in presence of casein, hGIPR; assay type: cell-based
T2 sequence (P48546 22-466): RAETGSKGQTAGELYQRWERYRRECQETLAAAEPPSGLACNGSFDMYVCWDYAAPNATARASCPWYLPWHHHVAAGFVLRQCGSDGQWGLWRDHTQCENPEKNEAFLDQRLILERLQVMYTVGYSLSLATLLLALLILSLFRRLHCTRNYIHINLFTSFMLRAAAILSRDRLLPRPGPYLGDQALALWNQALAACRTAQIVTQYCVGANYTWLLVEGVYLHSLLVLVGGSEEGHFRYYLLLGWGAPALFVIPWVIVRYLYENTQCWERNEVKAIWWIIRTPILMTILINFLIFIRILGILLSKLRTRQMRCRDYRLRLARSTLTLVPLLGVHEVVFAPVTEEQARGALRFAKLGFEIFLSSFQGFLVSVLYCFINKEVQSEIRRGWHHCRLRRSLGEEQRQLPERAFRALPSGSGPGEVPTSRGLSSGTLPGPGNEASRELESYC

human GLP-1R [3] = target: T3, human GLP-1R (Homo sapiens, UniProt P43220); experiment: GLP-1R CHO cell β-arrestin recruitment assay; assay type: cell-based; parameters: host or cells: CHO-K1 PathHunter cells, assay-ready frozen; details: for hGLP1R B-Arrestin2 % Top: normalized to GLP-1 maximum control
T3 sequence (P43220 24-463): as the sequence (P43220 24-463) above
How it was run: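 PathHunter CHO-K1 cells with ProLink-tagged human GLP-1R and enzyme-acceptor-tagged β-arrestin-2 treated with serially diluted peptides in assay buffer containing 0.1% hydrolyzed casein, 90 min at 37 °C.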

human GLP-1R [4] = target: T3, human GLP-1R; experiment: GLP-1R HEK293 cell membrane [35S]GTPγS binding assay; assay type: biochemical; parameters: expressed in transfected cells; host or cells: HEK293 cells expressing human GLP-1R; membranes
How it was run: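 Membranes from HEK293 cells expressing the receptor incubated with peptide and […] [35S]GTPγS in HEPES pH 7.4 buffer with NaCl, MgCl2, saponin and BSA, 30 min at room temperature. Gαs-bound label captured by anti-Gαs antibody/SPA beads and counted; EC50 from four-parameter logistic fit.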

[5] = read-out: hGLcgR Ki, nM (SEM, n)
[6] = HEK293 cells expressing hGLP-1R, 0.1% Casein, geometric mean, read-out: hGLP1R cAMP Rel EC50 nM (SEM, n)
[7] = HEK293 cells expressing hGIPR, 0.1% Casein, geometric mean, read-out: hGIPR cAMP Rel EC50 nM (SEM, n)
[8] = CHO-K1 cells, PathHunter β-arrestin-2 recruitment, 0.1% casein, read-out: hGLP1R B-Arrestin2 Rel EC50 uM (SEM, n)
[9] = HEK293 cell membranes expressing human GLP-1R, [35S]GTPγS binding, read-out: hGLP1R GTPgS Rel EC50 nM (SEM, n)

Row | SMILES | Ki (human Gcg receptor) | EC50 [1] | EC50 [2] | EC50 (human GLP-1R [3]) | hGLP1R B-Arrestin2 % Top (human GLP-1R [3]) | EC50 (human GLP-1R [4]) | Ki (human Gcg receptor; [5]) | EC50 [1, 6] | EC50 [2, 7] | EC50 (human GLP-1R [3]; [8]) | EC50 (human GLP-1R [4]; [9])
1 | CC[C@H](C)[C@H](NC(=O)[C@H](CC(C)C)NC(=O)[C@H](Cc1ccc(O)cc1)NC(=O)[C@@H](CCC(=O)O)NC(=O)[C@@H](NC(=O)[C@H](Cc1ccccc1)NC(=O)[C@H](CCC(=O)O)NC(=O)C(C)(C)NC(=O)[C@H](CCC(N)=O)NC(=O)[C@H](C)NC(=O)[C@H](CCCCNC(=O)COCCOCCNC(=O)COCCOCCNC(=O)CC[C@H](NC(=O)CCCCCCCCCCCCCCCCC(=O)O)C(=O)O)NC(=O)[C@H](CCCN)NC(=O)[C@H](CC(=O)O)NC(=O)[C@H](CC(C)C)NC(=O)[C@](C)(CC(C)C)NC(=O)[C@@H](NC(=O)[C@H](CO)NC(=O)[C@H](Cc1ccc(O)cc1)NC(=O)[C@H](CC(=O)O)NC(=O)[C@H](CO)NC(=O)[C@@H](NC(=O)[C@](C)(Cc1ccccc1F)NC(=O)[C@@H](NC(=O)CNC(=O)[C@H](CCC(=O)O)NC(=O)C(C)(C)NC(=O)[C@@H](N)Cc1ccc(O)cc1)[C@@H](C)O)[C@@H](C)O)[C@@H](C)CC)[C@@H](C)CC)C(=O)N[C@@H](CCC(=O)O)C(=O)NCC(=O)NCC(=O)N1CCC[C@H]1C(=O)N[C@@H](CO)C(=O)N[C@@H](CO)C(=O)NCC(=O)N[C@@H](C)C(=O)N1CCC[C@H]1C(=O)N1CCC[C@H]1C(=O)N1CCC[C@H]1C(=O)N[C@@H](CO)C(N)=O [Example 2] (H-Y[Aib]EGT[αMePhe(2-F)]TSDYSI[αMeL]LD[Orn]K([AEEA-AEEA-γGlu-C18 diacid])AQ[Aib]EFI[dE]YLIEGGPSSGAPPPS-NH2; N-terminus assumed) | 361 nM | 0.0441 nM | 0.0339 nM | 0.00882 µM | 96.1% | 0.642 nM |  |  |  |  | 
2 | CC[C@H](C)[C@H](NC(=O)[C@H](CC(C)C)NC(=O)[C@](C)(Cc1ccc(O)cc1)NC(=O)[C@@H](CCC(=O)O)NC(=O)[C@@H](NC(=O)[C@H](Cc1ccccc1)NC(=O)[C@H](CCC(=O)O)NC(=O)C(C)(C)NC(=O)[C@H](CCC(N)=O)NC(=O)[C@H](C)NC(=O)[C@H](CCCCNC(=O)COCCOCCNC(=O)COCCOCCNC(=O)CC[C@H](NC(=O)CCCCCCCCCCCCCCCCC(=O)O)C(=O)O)NC(=O)[C@H](CCCN)NC(=O)[C@H](CC(=O)O)NC(=O)[C@H](CC(C)C)NC(=O)[C@](C)(CC(C)C)NC(=O)[C@@H](NC(=O)[C@H](CO)NC(=O)[C@H](Cc1ccncc1)NC(=O)[C@H](CC(=O)O)NC(=O)[C@H](CO)NC(=O)[C@@H](NC(=O)[C@](C)(Cc1ccccc1F)NC(=O)[C@@H](NC(=O)CNC(=O)[C@H](CCC(=O)O)NC(=O)C(C)(C)NC(=O)[C@@H](N)Cc1ccc(O)cc1)[C@@H](C)O)[C@@H](C)O)[C@@H](C)CC)[C@@H](C)CC)C(=O)N[C@@H](CCC(=O)O)C(=O)NCC(=O)NCC(=O)N1CCC[C@H]1C(=O)N[C@@H](CO)C(=O)N[C@@H](CO)C(=O)NCC(=O)N[C@@H](C)C(=O)N1CCC[C@H]1C(=O)N1CCC[C@H]1C(=O)N1CCC[C@H]1C(=O)N[C@@H](CO)C(N)=O [Example 4] | 686 nM | 0.0297 nM | 0.0272 nM | 0.0048 µM | 92.4% | 0.245 nM |  |  |  |  | 
3 | CC[C@H](C)[C@H](NC(=O)[C@H](CC(C)C)NC(=O)[C@H](Cc1ccc(O)cc1)NC(=O)[C@H](CCC(=O)O)NC(=O)[C@@H](NC(=O)[C@H](Cc1ccccc1)NC(=O)[C@H](C)NC(=O)C(C)(C)NC(=O)[C@H](CCC(N)=O)NC(=O)[C@H](C)NC(=O)[C@H](CCCCNC(=O)COCCOCCNC(=O)COCCOCCNC(=O)CC[C@H](NC(=O)CCCCCCCCCCCCCCCCCCC(=O)O)C(=O)O)NC(=O)[C@H](CCCCN)NC(=O)[C@H](CC(=O)O)NC(=O)[C@H](CC(C)C)NC(=O)[C@H](CC(C)C)NC(=O)[C@@H](NC(=O)[C@H](CO)NC(=O)[C@H](Cc1ccc(O)cc1)NC(=O)[C@H](CC(=O)O)NC(=O)[C@H](CO)NC(=O)[C@@H](NC(=O)[C@H](Cc1ccccc1)NC(=O)[C@@H](NC(=O)CNC(=O)[C@H](CCC(=O)O)NC(=O)C(C)(C)NC(=O)[C@@H](N)Cc1ccc(O)cc1)[C@@H](C)O)[C@@H](C)O)[C@@H](C)CC)[C@@H](C)CC)C(=O)N[C@@H](C)C(=O)NCC(=O)NCC(=O)N1CCC[C@H]1C(=O)N[C@@H](CO)C(=O)N[C@@H](CO)C(=O)NCC(=O)N[C@@H](C)C(=O)N1CCC[C@H]1C(=O)N1CCC[C@H]1C(=O)N1CCC[C@H]1C(=O)N[C@@H](CO)C(N)=O [Example 288] (H-Y[Aib]EGTFTSDYSILLDKK([AEEA-AEEA-γGlu-C20 diacid])AQ[Aib]AFIEYLIAGGPSSGAPPPS-NH2; N-terminus assumed) |  |  |  |  | 21.3% |  | 345 nM | 0.172 nM | 0.0732 nM | 0.00674 µM | 0.666 nM
4 | CC[C@H](C)[C@H](NC(=O)[C@H](CC(C)C)NC(=O)[C@H](Cc1ccc(O)cc1)NC(=O)[C@H](CCC(=O)O)NC(=O)[C@@H](NC(=O)[C@H](Cc1ccccc1)NC(=O)[C@H](CCC(=O)O)NC(=O)C(C)(C)NC(=O)[C@H](CCC(N)=O)NC(=O)[C@H](C)NC(=O)[C@H](CCCCNC(=O)COCCOCCNC(=O)COCCOCCNC(=O)CC[C@H](NC(=O)CCCCCCCCCCCCCCCCCCC(=O)O)C(=O)O)NC(=O)[C@H](CCCCN)NC(=O)[C@H](CC(=O)O)NC(=O)[C@H](CC(C)C)NC(=O)[C@](C)(CC(C)C)NC(=O)[C@@H](NC(=O)[C@H](CO)NC(=O)[C@H](Cc1ccc(O)cc1)NC(=O)[C@H](CC(=O)O)NC(=O)[C@H](CO)NC(=O)[C@@H](NC(=O)[C@H](Cc1ccccc1)NC(=O)[C@@H](NC(=O)CNC(=O)[C@H](CCC(=O)O)NC(=O)C(C)(C)NC(=O)[C@@H](N)Cc1ccc(O)cc1)[C@@H](C)O)[C@@H](C)O)[C@@H](C)CC)[C@@H](C)CC)C(=O)N[C@@H](C)C(=O)NCC(=O)NCC(=O)N1CCC[C@H]1C(=O)N[C@@H](CO)C(=O)N[C@@H](CO)C(=O)NCC(=O)N[C@@H](C)C(=O)N1CCC[C@H]1C(=O)N1CCC[C@H]1C(=O)N1CCC[C@H]1C(=O)N[C@@H](CO)C(N)=O [Example 289] (H-Y[Aib]EGTFTSDYSI[αMeL]LDKK([AEEA-AEEA-γGlu-C20 diacid])AQ[Aib]EFIEYLIAGGPSSGAPPPS-NH2) |  |  |  |  | 51.3% |  | > 1050 nM | 0.0544 nM | 0.0228 nM | 0.0124 µM | 0.404 nM
5 | CC[C@H](C)[C@H](NC(=O)[C@H](CC(C)C)NC(=O)[C@H](Cc1ccc(O)cc1)NC(=O)[C@H](CCC(=O)O)NC(=O)[C@@H](NC(=O)[C@H](Cc1ccccc1)NC(=O)[C@H](C)NC(=O)C(C)(C)NC(=O)[C@H](CCC(N)=O)NC(=O)[C@H](C)NC(=O)[C@H](CCCCNC(=O)COCCOCCNC(=O)COCCOCCNC(=O)CC[C@H](NC(=O)CCCCCCCCCCCCCCCCC(=O)O)C(=O)O)NC(=O)[C@H](CCCCN)NC(=O)[C@H](CC(=O)O)NC(=O)[C@H](CC(C)C)NC(=O)[C@H](CC(C)C)NC(=O)[C@@H](NC(=O)[C@H](CO)NC(=O)[C@H](Cc1ccc(O)cc1)NC(=O)[C@H](CC(=O)O)NC(=O)[C@H](CO)NC(=O)[C@@H](NC(=O)[C@](C)(Cc1ccccc1)NC(=O)[C@@H](NC(=O)CNC(=O)[C@H](CCC(=O)O)NC(=O)C(C)(C)NC(=O)[C@@H](N)Cc1ccc(O)cc1)[C@@H](C)O)[C@@H](C)O)[C@@H](C)CC)[C@@H](C)CC)C(=O)N[C@@H](CCC(=O)O)C(=O)NCC(=O)NCC(=O)N1CCC[C@H]1C(=O)N[C@@H](CO)C(=O)N[C@@H](CO)C(=O)NCC(N)=O [Example 301] (H-Y[Aib]EGT[αMeF]TSDYSILLDKK([AEEA-AEEA-γGlu-C18 diacid])AQ[Aib]AFIEYLIEGGPSSG-NH2) |  |  |  |  | 93.7% |  | 44.4 nM | 0.0441 nM | 0.0346 nM | 0.00267 µM | 0.435 nM
